# Data published in patent US20220249418A1, “COMPOSITIONS COMPRISING AMINO ACIDS FOR USE IN THE TREATMENT OF MITOCHONDRIAL DYSFUNCTION-RELATED DISEASES” (PROFESSIONAL DIETETICS INTERNATIONAL S.R.L., priority 2017, published 2022).
# Tested on: HL-1 cardiomyocytes
# Test: oxygen consumption (Clark-type oxygen electrode)
# Type: cell-based, Mus musculus
# Settings: HL-1 cells, 48 hr treatment, normalized to protein content; FIG. 5
# Method: HL-1 cardiomyocytes (a gift from W. C. Claycomb, New Orleans, School of Medicine) were plated in fibronectin/gelatin-coated flasks, grown to 70%-80% confluence in Claycomb medium (JRH Biosciences) supplemented with 100 μM norepinephrine (from a 10 mM norepinephrine [Sigma-Aldrich] stock solution dissolved in 30 mM L-ascorbic acid [Sigma-Aldrich]), 2 mM L-glutamine, 100 U/ml penicillin, 100 μg/ml streptomycin and 10% FBS (JRH Biosciences) as disclosed in Claycomb et al., 1998.
# At the end of these periods, mRNA and DNA were extracted from the cells or the cells were used to evaluate the oxygen consumption. Control cells were treated with Claycomb medium only.
# An amount of 1 ml of HL-1 cardiomyocytes treated with the compositions shown in Table 1 was re-suspended in Hank's balanced salt solution (Sigma) and spun down to pellet cells. A number of HL-1 cells was also supplemented with a nitic oxide (NO) donor, specifically with diethylenetriamine-NO also called (DETA-NO; Sigma-Aldrich, Milan, Italy), as positive control. […]
# Samples were analyzed at 37° C. in a gas-tight vessel equipped with a Clark-type oxygen electrode (Rank Brothers Ltd.) connected to a chart recorder. […]
# Oxygen consumption was assessed with continuous mixing for about ten minutes. […] Protein content was determined by using the bicinchoninic acid protein (BCA) assay.
structure (smiles),measurement,value
"NCCN(CCN)/[N+]([O-])=N/O [DETA-NO, diethylenetriamine-NO]",oxygen consumption,a rise of oxygen consumption was observed
